Legend:
[1] = tested on: MRSA strains; experiment: MIC by agar dilution or microbroth dilution method (NCCLS); type: cell-based, Staph. aureus
Procedure: (§1) Bacterial isolates were obtained from human infections. The isolates were maintained frozen in a liquid nitrogen freezer and plated on Trypticase Soy Agar (TSA) plates supplemented with 5% sheep blood. The quality control strain Staph. aureus 29213 was originally acquired from the American Type Culture Collection (Rockville, Md.).
(§2) MICs were determined by an agar dilution method or microbroth dilution method recommended by NCCLS. Synergy was assessed by agar dilution checker-board method. Minimal inhibitory concentrations (MICS) for each separate drug were determined. The fractional inhibitory concentration (FIC) values were calculated by the MIC of Drug A (e.g., sulbactam/ampicillin) and Drug B (e.g., linezolid or arbekacin) in combination/MIC of Drug A or B alone. The FIC index was determined according to the following formula: [formula]

[2] = tested on: VRSA strains; experiment: MIC by agar dilution or microbroth dilution method (NCCLS), VRSA strains; type: cell-based, Staph. aureus; conditions: VRSA strains (n = 10)
Procedure: as §1, §2
In total, 48 MRSA strains were tested, including ten VRSA strains isolated from five different countries in the world, 33 MRSA strains isolated from ten Japanese university hospitals, and five MRSA type strains from Juntendo University, Department of Bacteriology, Tokyo, Japan.

[3] = tested on: Staph. aureus 29213; experiment: MIC, quality control strain; type: cell-based
Procedure: as §1, §2

[4] = strain JSCC 581 (lacks the mecA gene)
[5] = strain JSCC 590 (lacks the mecA gene)
[6] = strain ATCC 29213, control sample (Ex. 26)
[7] = strain ATCC29213, control sample (Ex. 37)

`CO/N=C(\C(=O)N[C@@H]1C(=O)N2C(C(=O)O)=CCS[C@H]12)c1csc(N)n1` [CZX, ceftizoxime] was tested. Which “MICs 50%” value ([1]; MRSA strains (n = 38)) did it give?
Its value is greater than 128 mg/L.

What about the “MICs 90%” value ([1]; MRSA strains (n = 38)) of the same molecule?
The value was greater than 128 mg/L.

And the “MIC Values” ([1]; strain 85/2082)?
The value was greater than 128 µg/mL.

What about the “MIC Values” ([1]; strain 99.3700W) of the same molecule?
The value was greater than 128 µg/mL.

And the “MIC Values” ([1]; strain 99.3759V)?
The value was greater than 128 µg/mL.

What about the “MIC Values” ([1]; strain AMC 11094) of the same molecule?
Its value is greater than 128 µg/mL.

And the “MIC Values” ([1]; strain BM12612(new))?
Its value is greater than 128 µg/mL.

What about the “MIC Values” ([1]; strain H1) of the same molecule?
Its value is 2048 µg/mL.

And the “MIC Values” ([1]; strain HIP 5827)?
The value was greater than 128 µg/mL.

And the “MIC Values” ([1]; strain HIP 5836)?
Its value is greater than 128 µg/mL.

And the “MIC Values” ([1]; strain HIP 6297)?
Its value is greater than 128 µg/mL.

And the “MIC Values” ([1]; strain HIP 7737)?
Its value is greater than 128 µg/mL.

And the “MIC Values” ([1]; strain JSCC 340)?
Its value is greater than 128 µg/mL.

What about the “MIC Values” ([1]; strain JSCC 351) of the same molecule?
Its value is greater than 128 µg/mL.

What about the “MIC Values” ([1]; strain JSCC 363) of the same molecule?
Its value is greater than 128 µg/mL.

What about the “MIC Values” ([1]; strain JSCC 381) of the same molecule?
The value was greater than 128 µg/mL.

What about the “MIC Values” ([1]; strain JSCC 390) of the same molecule?
Its value is greater than 128 µg/mL.

And the “MIC Values” ([1]; strain JSCC 401)?
Its value is greater than 128 µg/mL.

What about the “MIC Values” ([1]; strain JSCC 413) of the same molecule?
Its value is greater than 128 µg/mL.

What about the “MIC Values” ([1]; strain JSCC 431) of the same molecule?
The value was greater than 128 µg/mL.

And the “MIC Values” ([1]; strain JSCC 440)?
The value was greater than 128 µg/mL.

And the “MIC Values” ([1]; strain JSCC 451)?
Its value is greater than 128 µg/mL.

What about the “MIC Values” ([1]; strain JSCC 463) of the same molecule?
Its value is greater than 128 µg/mL.

And the “MIC Values” ([1]; strain JSCC 481)?
Its value is greater than 128 µg/mL.

And the “MIC Values” ([1]; strain JSCC 490)?
The value was greater than 128 µg/mL.

What about the “MIC Values” ([1]; strain JSCC 501) of the same molecule?
The value was greater than 128 µg/mL.

And the “MIC Values” ([1]; strain JSCC 513)?
Its value is greater than 128 µg/mL.

What about the “MIC Values” ([1]; strain JSCC 531) of the same molecule?
The value was greater than 128 µg/mL.

And the “MIC Values” ([1]; strain JSCC 540)?
Its value is greater than 128 µg/mL.

What about the “MIC Values” ([1]; strain JSCC 551) of the same molecule?
Its value is greater than 128 µg/mL.

What about the “MIC Values” ([1]; strain JSCC 563) of the same molecule?
Its value is 16 µg/mL.

And the “MIC Values” [1, 4]?
The value was 16 µg/mL.

And the “MIC Values” [1, 5]?
The value was 16 µg/mL.

What about the “MIC Values” ([1]; strain JSCC 601) of the same molecule?
Its value is greater than 128 µg/mL.

And the “MIC Values” ([1]; strain JSCC 640)?
Its value is greater than 128 µg/mL.

What about the “MIC Values” ([1]; strain JSCC 651) of the same molecule?
The value was greater than 128 µg/mL.

What about the “MIC Values” ([1]; strain JSCC 663) of the same molecule?
Its value is greater than 128 µg/mL.

What about the “MIC Values” ([1]; strain JSCC 681) of the same molecule?
The value was greater than 128 µg/mL.

What about the “MIC Values” ([1]; strain JSCC 690) of the same molecule?
Its value is greater than 128 µg/mL.

What about the “MIC Values” ([1]; strain JSCC 701) of the same molecule?
Its value is greater than 128 µg/mL.

What about the “MIC Values” ([1]; strain JSCC 713) of the same molecule?
Its value is greater than 128 µg/mL.

And the “MIC Values” ([1]; strain JSCC 731)?
The value was greater than 128 µg/mL.

What about the “MIC Values” ([1]; strain JSCC 740) of the same molecule?
Its value is greater than 128 µg/mL.

What about the “MIC Values” ([1]; strain JSCC 751) of the same molecule?
Its value is greater than 128 µg/mL.

What about the “MIC Values” ([1]; strain JSCC 763) of the same molecule?
The value was greater than 128 µg/mL.

What about the “MIC Values” ([1]; strain JSCC 781) of the same molecule?
The value was greater than 128 µg/mL.

And the “MIC Values” ([1]; strain JSCC 870)?
Its value is greater than 128 µg/mL.

And the “MIC Values” ([1]; strain LIM 2)?
Its value is greater than 128 µg/mL.

And the “MIC Values” ([1]; strain Mu 3)?
Its value is greater than 128 µg/mL.

What about the “MIC Values” ([1]; strain Mu 50) of the same molecule?
Its value is greater than 128 µg/mL.

What about the “MIC Values” ([1]; strain N315) of the same molecule?
Its value is 64 µg/mL.

What about the “MIC Values” ([1]; strain NCTC 10442) of the same molecule?
The value was greater than 128 µg/mL.

What about the “MICs 50%” value [2] of the same molecule?
Its value is greater than 128 mg/L.

And the “MICs 90%” value [2]?
Its value is greater than 128 mg/L.

What about the “MICs Range” value [2] of the same molecule?
The value was greater than 128 mg/L.

And the “MIC Values” [3, 6]?
Its value is 8 µg/mL.

What about the “MIC Values” [3, 7] of the same molecule?
Its value is 4 µg/mL.

What does the source list for `C[C@@H](O)[C@H]1C(=O)N2C(C(=O)O)=C(SCCN=CN)C[C@H]12` [IPM, imipenem]?
MICs 50% ([1]; MRSA strains (n = 38)): 16 mg/L; MICs 90% ([1]; MRSA strains (n = 38)): 64 mg/L; MICs Range ([1]; MRSA strains (n = 38)): >0.125 to 128 mg/L; MIC Values ([1]; strain 85/2082): 2 µg/mL; MIC Values ([1]; strain 99.3700W): 32 µg/mL; MIC Values ([1]; strain 99.3759V): 64 µg/mL; MIC Values ([1]; strain AMC 11094): 32 µg/mL; MIC Values ([1]; strain BM12612(new)): 128 µg/mL; MIC Values ([1]; strain H1): 64 µg/mL; MIC Values ([1]; strain HIP 5827): 64 µg/mL; MIC Values ([1]; strain HIP 5836): 8 µg/mL; MIC Values ([1]; strain HIP 6297): 1 µg/mL; MIC Values ([1]; strain HIP 7737): 32 µg/mL; MIC Values ([1]; strain JSCC 340): 64 µg/mL; MIC Values ([1]; strain JSCC 351): 32 µg/mL; MIC Values ([1]; strain JSCC 363): 32 µg/mL; MIC Values ([1]; strain JSCC 381): 32 µg/mL; MIC Values ([1]; strain JSCC 390): 32 µg/mL; MIC Values ([1]; strain JSCC 401): 64 µg/mL; MIC Values ([1]; strain JSCC 413): 16 µg/mL; MIC Values ([1]; strain JSCC 431): 1 µg/mL; MIC Values ([1]; strain JSCC 440): 16 µg/mL; MIC Values ([1]; strain JSCC 451): 64 µg/mL; MIC Values ([1]; strain JSCC 463): 64 µg/mL; MIC Values ([1]; strain JSCC 481): 64 µg/mL; MIC Values ([1]; strain JSCC 490): 32 µg/mL; MIC Values ([1]; strain JSCC 501): 32 µg/mL; MIC Values ([1]; strain JSCC 513): 8 µg/mL; MIC Values ([1]; strain JSCC 531): 32 µg/mL; MIC Values ([1]; strain JSCC 540): 64 µg/mL; MIC Values ([1]; strain JSCC 551): 16 µg/mL; MIC Values ([1]; strain JSCC 563): ≦0.125 mcg/mL; MIC Values [1, 4]: ≦0.125 mcg/mL; MIC Values [1, 5]: ≦0.125 mcg/mL; MIC Values ([1]; strain JSCC 601): 1 µg/mL; MIC Values ([1]; strain JSCC 640): 32 µg/mL; MIC Values ([1]; strain JSCC 651): 32 µg/mL; MIC Values ([1]; strain JSCC 663): 8 µg/mL; MIC Values ([1]; strain JSCC 681): 8 µg/mL; MIC Values ([1]; strain JSCC 690): 16 µg/mL; MIC Values ([1]; strain JSCC 701): 32 µg/mL; MIC Values ([1]; strain JSCC 713): 32 µg/mL; MIC Values ([1]; strain JSCC 731): 32 µg/mL; MIC Values ([1]; strain JSCC 740): 16 µg/mL; MIC Values ([1]; strain JSCC 751): 32 µg/mL; MIC Values ([1]; strain JSCC 763): 8 µg/mL; MIC Values ([1]; strain JSCC 781): 32 µg/mL; MIC Values ([1]; strain JSCC 870): 16 µg/mL; MIC Values ([1]; strain LIM 2): 8 µg/mL; MIC Values ([1]; strain Mu 3): 128 µg/mL; MIC Values ([1]; strain Mu 50): 64 µg/mL; MIC Values ([1]; strain N315): 1 µg/mL; MIC Values ([1]; strain NCTC 10442): 64 µg/mL; MICs 50% [2]: 32 mg/L; MICs 90% [2]: 64 mg/L; MICs Range [2]: 1 to 128 mg/L; MIC Values [3, 6]: ≦0.125 mcg/mL; MIC Values [3, 7]: ≦0.125 mcg/mL
